Test results as given in US20240299358A1, “COMPOSITIONS AND METHODS FOR DIAGNOSIS AND TREATMENT OF AUTOIMMUNE DISEASES” (DUKE UNIVERSITY, priority 2021, published 2024).

Key:
eHsp90 [1] = assay: Flow cytometry uptake of fluor-tethered Hsp90 inhibitors by T cells from human PBMCs; assay type: cell-based
Method: T-cell activation: PBMC aliquots (ZenBio SER-PBMC-F) were washed in RPMI-1640 with 10% FBS and PSG and then rested overnight in a T-75 flask. The suspended cells were then transferred to a fresh flask and activated in fresh RPMI-1640/10% FBS/PSG by 3:20,000 anti-CD3 (BioLegend 317303), 3:20,000 anti-CD28 (BioLegend 302913), and 1:10,000 (30 IU/mL) human IL-2 (CST 8907SC) and incubated for up to 72 hours. In the experiments with longer activation, samples were diluted 1:3 into fresh media containing hIL-2 at 72 hours post initial stimulation with CD3/CD28 antibodies.
Flow Cytometry: The activated/rested cells were plated into a 96-well round bottom plate and pelleted at low speed. Cells were resuspended in chilled media containing titrated HS-131 or HS-198 (in 1% DMSO) and stained for 30 minutes at RT. Fluorochrome tagged inhibitors and media were washed away with a PBS wash, followed by a PBS wash containing 3% NMS. Surface antibody stains were performed in 3% NMS/PBS for 30 minutes followed by PBS washes (2x). Samples were analyzed on BD FACSCanto II flow cytometer. Permeabilized samples were prepared as previously described followed by fixation in 4% Formaldehyde/PBS overnight at 4° C. Sample analysis was performed with Flowing Software and FlowJo.
A hallmark of T cell function is to proliferate rapidly in response to antigen presentation along with appropriate cytokine and costimulatory signaling. This leads to the induction of the chaperone machinery which is essential in facilitating this process. In some respects, antigen induced T cell proliferation may be analogous to oncogene driven metastasis. Therefore, to investigate whether proliferating T cells similarly express eHsp90 during T cell activation, their ability to absorb fluor-tethered Hsp90 inhibitors following an anti-CD3/CD28 challenge was examined (see. FIGS. 2A-2E). The structures of two types of fluor-tethered Hsp90 inhibitors (HS-131 and […]) that were used in the present studies are shown in FIG. 2A. […]

eHsp90 [2] = assay: In vivo tracking of eHsp90 expression in CIA mouse model of RA (flow cytometry, CryoViz imaging); details: 6 hours post tail vein injection, CD4 and CD8 T cells (FIG. 5B)
Method: FIG. 5A is a schematic of CIA mouse model of RA experimental design, wherein mice were inoculated with CIA on day 0) and 21. […] 6-hours post treatment mice were whole body cryopreserved. […] Gated regions indicate CD4 and CD8 T-Cell populations isolated from individual mice. eHsp90 expression in CD4 and CD8 T cells 6 hours post HS-131 or HS-198 treatment. N=3+SD. Experiments represent 3 biological replicates.
CIA Disease: Collagen was prepared at 4 mg/ml in 0.01 N acetic acid. Equal volumes of 4 mg/ml collagen and 5 mg/ml Freund's complete adjuvant were emulsified by hand mixing with syringes for approximately 5 min, at which point a bead of this material holds its form when placed in water. On study days 0 and 21, animals were anesthetized with isoflurane and given intradermal injections of a total of 400 μg of type II collagen in Freund's complete adjuvant at the base of the tail.
CryoViz™ Imaging: Whole mice were imaged at 10.23 μm×10.23 μm in-plane resolution using an Olympus MVX-10 microscope with a 1X objective and 0.63× magnification and 40 μm section thickness, using the Cryo Viz™ (BioInVision, Inc., Cleveland, USA). CryoViz™ is a fully automated, serial sectioning-and-imaging system which provides 3-dimensional, tiled, microscopic anatomical bright field and molecular fluorescence images over large fields-of-view such as a whole mouse. Images were acquired using a dual band FITC/TxRed fluorescence filter (Chroma, Inc., Rockingham, VT), a liquid crystal RGB filter and a low-noise monochrome camera. Raw images acquired by the Cryo Viz™ were processed to generate 3D color anatomical brightfield and molecular fluorescence volumes using the Cryo Viz™ Preprocessor software (BioIn Vision, Inc., Cleveland, Ohio). These 3D volumetric image data were then processed using the CryoViz™ 3D Visualizer software (BioInVision, Inc., Cleveland, USA) to obtain 3D reconstructed brightfield and fluorescence volume renderings and movies with 2D slice cutaway animations, showing the 2D/3D biodistribution of TxRed labeled HS-131 within the mouse volume.
This was consistently seen in cell culture, tumor cell xenografts and mouse models of spontaneous metastatic disease (Barrott et al. Chem Biol 20. 1187-1197 (2013)). […] To determine if this phenomenon occurred within the context of a fully functional immune system, the collagen induced arthritic (CIA) mouse model of human rheumatoid arthritis (RA) was utilized (Rice et al. Arthritis Rheum 58. 3765-3775 (2008)). Mice (DBA/IlacJ ˜8 weeks old) reliably develop polyarthritis when immunized against bovine type II collagen (Scarneo et al. Arthritis Res Ther 21, 292 (2019): Campbell et al., Ann Rheum Dis 56, 364-368 (1997)). The disease that occurs is usually non-symmetric, and any combination of paws/joints may be affected. Mice were injected […] with bovine collagen at Day (and then again 21 days later (FIG. 5A). This second injection triggered the development of the CIA related symptoms over the next several days within the joints. A primary mediator of local inflammatory responses in autoimmunity are invading T cell populations recognizing foreign antigens. To determine if invading T cells at sites of active disease expressed eHsp90, the animals were injected with HS-131 or HS-198. This was done at the peak of RA symptoms following the second immune challenge. After 6 hours, the animals were euthanized, immediately cryo-frozen in liquid nitrogen and cryo-sectioned (see, FIG. 5A).
Approximately, 500 40 μm slices were made and each slice imaged with both bright field and by fluorescence at Ex640 nm/Em680 nm. Evaluation of the biodistribution was then made by histological examination of individual slices and after in silico reconstruction of the entire mouse anatomy (see, FIGS. 5B-5E).

Compound | uptake of inactive analogue by stimulated T cells (eHsp90 [1]; 10 μM (FIG. 2D)) | probe signal (eHsp90 expression) in T cells of PBMC populations from CIA mice by flow cytometry (eHsp90 [2]) | fluor signal on competition with Hsp90 inhibitor (eHsp90 [1]; saturating dose, 10-fold excess of ganetespib over 10 μM HS-131 (FIG. 2D))
Cc1nn(-c2ccc(C(=O)N(C)C)c(NCCCOCCOCCOCCOCCOCCCNCc3ccc(C(=C\C=C4/N(CCCCS(=O)(=O)O)c5ccccc5C4(C)C)/C=C/C4=[N+](CCCCS(=O)(=O)[O-])c5ccccc5C4(C)C)cc3)c2)c2c1C(=O)CC(C)(C)C2 [HS-198] | minimal uptake | No signal | –
CC(C)c1cc(-c2n[nH]c(=O)n2-c2ccc3c(ccn3C)c2)c(O)cc1O [ganetespib, reference compound] | – | – | effectively blocked
